Reference: patent US9957236B2, “Selective inhibitors interfering with fibroblast growth factor receptor and FRS2 interaction for the prevention and treatment of cancer and other diseases” (LIMITED LIABILITY COMPANY “RUSSIAN PHARMACEUTICAL …, priority 2014, dated 2018)

Key:
[1] = in vivo
From the text: Besides, acute toxicity of inhibitor RPT835 was studied in the following volume in a separate research: • Acute toxicity of the medicine was researched. […] The state of the animals after acute administration testifies of good tolerability of the medicine in doses exceeding the maximal therapeutic ones (about 4.3 mcg/kg) tens—hundreds of times. […]

[2] = biological target: T1, FRS2α (Homo sapiens, UniProt Q8WU20); test: FRS2α phosphorylation in SUM-52 cells (Western blotting); assay type: cell-based; design: endogenous in cells; host or cells: hFOB; conditions: SUM-52 (FGFR2 IIIb), RPT835 1 micron, FGF-1 100 ng/ml
T1 sequence (Q8WU20 1-508): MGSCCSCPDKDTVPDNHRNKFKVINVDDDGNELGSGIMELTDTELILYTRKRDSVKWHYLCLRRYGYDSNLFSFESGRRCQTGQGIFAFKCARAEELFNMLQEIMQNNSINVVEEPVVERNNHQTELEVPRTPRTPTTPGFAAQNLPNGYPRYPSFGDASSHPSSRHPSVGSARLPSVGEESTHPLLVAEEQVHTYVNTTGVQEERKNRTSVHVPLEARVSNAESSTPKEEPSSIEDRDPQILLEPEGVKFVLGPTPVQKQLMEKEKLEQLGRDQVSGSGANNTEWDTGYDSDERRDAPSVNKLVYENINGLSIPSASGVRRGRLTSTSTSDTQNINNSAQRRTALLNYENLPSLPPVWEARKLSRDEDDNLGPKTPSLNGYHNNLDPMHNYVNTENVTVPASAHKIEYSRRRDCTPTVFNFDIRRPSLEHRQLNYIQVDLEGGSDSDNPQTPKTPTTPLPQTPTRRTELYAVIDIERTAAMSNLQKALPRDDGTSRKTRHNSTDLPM
Description: The research assessed the influence of inhibitor RPT835 determined by formula II of this invention, intervention with interaction of FGFR2 represented by two most frequent isoforms IIIb and IIIc with FRS2. For this, human cell line of embryonal osteoblasts (hFOB) expressing only FGFR2 […], and human cell line of breast cancer SUM-52 expressing FGFR2 IIIb (all main versions of isoform—C1, C2, C3) were chosen.
Cells were divided into the groups: • 1a) hFOB • 1b) hFOB, stimulating FGF-1 (100 ng/ml) • 1c) hFOB, cultivation with RPT835 (1 micron) and stimulation of FGF-1 (100 ng/ml) • 2a) SUM-52 • 2b) SUM-52, stimulation of FGF-1 (100 ng/ml) • 2c) SUM-52, cultivation with RPT835 (1 micron) and stimulation of FGF-1 (100 ng/ml)

[3] = test system: SKOV3 ovarian cancer cells; test: Crystal Violet proliferation assay, SKOV3; assay type: cell-based; conditions: SKOV3, low FGFR2 expression; bFGF 100 ng/ml, 7 days
From the text: This research used additional cell lines: SKOV3 (ovarian cancer, ATCC # HTB-77), HS578T (breast cancer, ATCC # HTB-126), T47D (breast cancer, ATCC #HTB-1336), modified line of non-small cells lung cancer A549, line of metastatic melanoma of skin Mel Kor (RF Patent No. 2287578), and additional study of antiangiogenic activity—cell line SVEC-4-10 (endothelial cells, ATCC #CRL-2181).
The cells were cultivated in environment RPMI-1640 (PANECO) (SKOV3, HS578T, T47D, Mel-Kor) or DMEM (PANECO) (SVEC-4-10) containing 10% of embryonal serum cattle (FCS, HyClone), 2 mM glutamine (PANECO), antibiotics (100 IU/mL penicillin and […] streptomycin (all PANECO)) at 37° C. and 5% CO2. Cells at 70-80% monolayer were used for the experiments.
The cells were planted in low density (30 t of cells/ml) in triplets on a 96-cavity plate in an environment containing 0.1% of FCS serum. […] Growth of cells was determined by the modified “Crystal Violet mitogenic method” for 7 days after the experiment start. […] The dye was dissolved in ethanol and measured on a spectrophotometer at 540-560 nm. The curve of cell proliferative activity inhibition was built by the dependence of the percent of the cell quantity (Y axis) on concentration of inhibitor RPT835 in the cavity of the plate (X axis). […]

[4] = test system: HUVEC; test: Proliferation of endothelial cells HUVEC with FGF-2; assay type: cell-based; conditions: Homo sapiens, FGF-2 25 ng/ml, 96 hours, read-out: Cell growth suppression, IC50
Description: Endothelial cells HUVEC were sawn in 96-cavity plates and cultivate for 24 hours. After that, the following was added to the cells: • 1) inhibitor RPT835, or • 2) inhibitor described by Formula IX in this invention, or • 3) brivanib—multi-kinase inhibitor of FGFR/VEGFR, and also to all cells—FGF-2 in a concentration of 25 ng/ml.
The cells were cultivated for 96 hours in general and then were calculated.

[5] = biological target: T2, FGFR2-Fc (Homo sapiens, UniProt P21802); test: Enzyme linked FGF2 binding assay with FGFR2-Fc; conditions: concentrations of 1 to 1000 nM, FGF-2 + heparin
T2 construct: consisted of human extracellular domain FGFR2α (Inc) and Fc-fragment of human IgG1
T2 sequence (P21802 22-377 limits assumed): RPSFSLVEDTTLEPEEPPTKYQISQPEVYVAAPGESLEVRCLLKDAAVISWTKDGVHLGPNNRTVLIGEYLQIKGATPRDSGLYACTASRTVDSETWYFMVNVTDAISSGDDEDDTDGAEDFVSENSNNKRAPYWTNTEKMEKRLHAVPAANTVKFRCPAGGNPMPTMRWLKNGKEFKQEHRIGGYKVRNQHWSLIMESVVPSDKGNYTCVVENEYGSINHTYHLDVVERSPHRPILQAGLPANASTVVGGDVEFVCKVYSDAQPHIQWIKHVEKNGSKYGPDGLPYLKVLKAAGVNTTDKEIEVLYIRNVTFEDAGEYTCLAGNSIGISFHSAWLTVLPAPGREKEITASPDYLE
Description: Non-radioactive enzyme linked FGF2 binding assay was performed in order to assess if RPT835 influences on binding of FGFR2 and ligand (FGF-2). Recombinant chimeric protein FGFR2-Fc, which consisted of human extracellular domain FGFR2α (Inc) and Fc-fragment of human IgG1 was used in the binding assay of FGF-2. FGFR2α contained all the 3 immunoglobulin-like domains and represented domain IIIc FGFR2 with high affinity to FGF-2. A 96-cavity plate tablet was covered with FGFR2-Fc protein, and then the following was added into the cavities:
3) inhibitor RPT835 in various concentrations+FGF-2+heparin
4) a part of the cavities remained without stimulators (FGF-2+heparin) and RPT835 (negative control).
After incubation, enzyme-linked immunoassay was carried out using the corresponding antibodies and subsequent determination of OD650 (optic density with wavelength of 650 nm).

## Cc1cc([N+](=O)[O-])c(NS(=O)(=O)c2cccc(C(=O)O)c2)cc1-c1cccnc1 [RPT835, 3-(N-(4-methyl-2-nitro-5-(pyridin-3-yl)phenyl)sulfamoyl)benzoic acid]
[1]
  irritating effect on the mucous membrane of the gastrointestinal tract: does not have an irritating effect
[2]
  FRS2α phosphorylation level: completely suppressed the phosphorylation
[3]
  inhibition of proliferative activity: moderate effect
[4]
  IC50: 11 nM
[5]
  binding of FGF-2 and FGFR2-Fc: did not influence on binding of ligand with the receptor
